From ChEMBL document CHEMBL4004803, “Syntheses and antibacterial activity of soluble 9-bromo substituted indolizinoquinoline-5,12-dione derivatives” (Eur J Med Chem, 2017)

Tests used:
Format in all cases: functional
Staphylococcus aureus [1] = test: Antibacterial activity against methicillin-resistant Staphylococcus aureus 1012029 clinical isolate after 20 to 24 hrs by two-fold microdilution method
Staphylococcus aureus [2] = test: Antibacterial activity against methicillin-resistant Staphylococcus aureus GLH14 clinical isolate after 20 to 24 hrs by two-fold microdilution method
Staphylococcus aureus [3] = test: Antibacterial activity against methicillin-resistant Staphylococcus aureus 215073 clinical isolate after 20 to 24 hrs by two-fold microdilution method
Staphylococcus aureus [4] = test: Antibacterial activity against methicillin-resistant Staphylococcus aureus 202045 clinical isolate after 20 to 24 hrs by two-fold microdilution method
Staphylococcus aureus [5] = test: Antibacterial activity against methicillin-resistant Staphylococcus aureus 1024010 clinical isolate after 20 to 24 hrs by two-fold microdilution method
Staphylococcus aureus [6] = test: Antibacterial activity against methicillin-resistant Staphylococcus aureus 519030 clinical isolate after 20 to 24 hrs by two-fold microdilution method
Staphylococcus aureus [7] = test: Antibacterial activity against methicillin-resistant Staphylococcus aureus 814039 clinical isolate after 20 to 24 hrs by two-fold microdilution method
Staphylococcus aureus [8] = test: Antibacterial activity against methicillin-resistant Staphylococcus aureus 1026021 clinical isolate after 20 to 24 hrs by two-fold microdilution method
Staphylococcus aureus [9] = test: Antibacterial activity against methicillin-resistant Staphylococcus aureus 908046 clinical isolate after 20 to 24 hrs by two-fold microdilution method
Staphylococcus aureus [10] = test: Antibacterial activity against methicillin-resistant Staphylococcus aureus clinical isolate after 20 to 24 hrs by two-fold microdilution method
Staphylococcus aureus [11] = test: Antibacterial activity against methicillin-resistant Staphylococcus aureus 11703 clinical isolate after 20 to 24 hrs by two-fold microdilution method
Staphylococcus aureus [12] = test: Antibacterial activity against methicillin-resistant Staphylococcus aureus 110414 clinical isolate after 20 to 24 hrs by two-fold microdilution method
Staphylococcus aureus [13] = test: Antibacterial activity against methicillin-resistant Staphylococcus aureus 102849 clinical isolate after 20 to 24 hrs by two-fold microdilution method
Staphylococcus aureus [14] = test: Antibacterial activity against methicillin-resistant Staphylococcus aureus 316038 clinical isolate after 20 to 24 hrs by two-fold microdilution method
Staphylococcus aureus [15] = test: Antibacterial activity against methicillin-resistant Staphylococcus aureus 120827 clinical isolate after 20 to 24 hrs by two-fold microdilution method
Staphylococcus aureus [16] = test: Antibacterial activity against methicillin-resistant Staphylococcus aureus 919205 clinical isolate after 20 to 24 hrs by two-fold microdilution method
Staphylococcus aureus [17] = test: Antibacterial activity against methicillin-resistant Staphylococcus aureus 112430 clinical isolate after 20 to 24 hrs by two-fold microdilution method
Staphylococcus aureus [18] = test: Antibacterial activity against methicillin-resistant Staphylococcus aureus 216054 clinical isolate after 20 to 24 hrs by two-fold microdilution method
Staphylococcus aureus [19] = test: Antibacterial activity against methicillin-resistant Staphylococcus aureus 224001 clinical isolate after 20 to 24 hrs by two-fold microdilution method
Staphylococcus aureus [20] = test: Antibacterial activity against methicillin-resistant Staphylococcus aureus 822030 clinical isolate after 20 to 24 hrs by two-fold microdilution method
Staphylococcus aureus [21] = test: Antibacterial activity against methicillin-resistant Staphylococcus aureus 221014 clinical isolate after 20 to 24 hrs by two-fold microdilution method
Staphylococcus aureus [22] = test: Antibacterial activity against methicillin-resistant Staphylococcus aureus 1113041 clinical isolate after 20 to 24 hrs by two-fold microdilution method
Staphylococcus aureus [23] = test: Antibacterial activity against methicillin-resistant Staphylococcus aureus 109016 clinical isolate after 20 to 24 hrs by two-fold microdilution method
Staphylococcus aureus [24] = test: Antibacterial activity against methicillin-resistant Staphylococcus aureus 614019 clinical isolate after 20 to 24 hrs by two-fold microdilution method
Staphylococcus aureus [25] = test: Antibacterial activity against methicillin-resistant Staphylococcus aureus GLH15 clinical isolate after 20 to 24 hrs by two-fold microdilution method
Staphylococcus aureus [26] = test: Antibacterial activity against methicillin-resistant Staphylococcus aureus 414244 clinical isolate after 20 to 24 hrs by two-fold microdilution method
Staphylococcus aureus [27] = test: Antibacterial activity against methicillin-resistant Staphylococcus aureus 1023043 clinical isolate after 20 to 24 hrs by two-fold microdilution method
Staphylococcus aureus [28] = test: Antibacterial activity against methicillin-resistant Staphylococcus aureus 12308 clinical isolate after 20 to 24 hrs by two-fold microdilution method
Staphylococcus aureus [29] = test: Antibacterial activity against methicillin-resistant Staphylococcus aureus 110834 clinical isolate after 20 to 24 hrs by two-fold microdilution method
Staphylococcus aureus [30] = test: Antibacterial activity against methicillin-resistant Staphylococcus aureus 110328-1 clinical isolate after 20 to 24 hrs by two-fold microdilution method
Staphylococcus aureus [31] = test: Antibacterial activity against methicillin-resistant Staphylococcus aureus 519028 clinical isolate after 20 to 24 hrs by two-fold microdilution method
Staphylococcus aureus [32] = test: Antibacterial activity against methicillin-resistant Staphylococcus aureus 214026 clinical isolate after 20 to 24 hrs by two-fold microdilution method
Staphylococcus aureus [33] = test: Antibacterial activity against methicillin-resistant Staphylococcus aureus 304243 clinical isolate after 20 to 24 hrs by two-fold microdilution method
Staphylococcus aureus [34] = test: Antibacterial activity against methicillin-resistant Staphylococcus aureus 122045 clinical isolate after 20 to 24 hrs by two-fold microdilution method
Staphylococcus aureus [35] = test: Antibacterial activity against methicillin-resistant Staphylococcus aureus 3250299 clinical isolate after 20 to 24 hrs by two-fold microdilution method
Staphylococcus aureus [36] = test: Antibacterial activity against methicillin-resistant Staphylococcus aureus 111625 clinical isolate after 20 to 24 hrs by two-fold microdilution method
Staphylococcus aureus [37] = test: Antibacterial activity against methicillin-resistant Staphylococcus aureus 1216052 clinical isolate after 20 to 24 hrs by two-fold microdilution method
Staphylococcus aureus [38] = test: Antibacterial activity against methicillin-resistant Staphylococcus aureus 121969 clinical isolate after 20 to 24 hrs by two-fold microdilution method
Staphylococcus aureus [39] = test: Antibacterial activity against methicillin-resistant Staphylococcus aureus 1214023 clinical isolate after 20 to 24 hrs by two-fold microdilution method
Staphylococcus aureus [40] = test: Antibacterial activity against methicillin-resistant Staphylococcus aureus 829034 clinical isolate after 20 to 24 hrs by two-fold microdilution method
Staphylococcus aureus [41] = test: Antibacterial activity against methicillin-resistant Staphylococcus aureus 518036 clinical isolate after 20 to 24 hrs by two-fold microdilution method
Staphylococcus aureus [42] = test: Antibacterial activity against methicillin-resistant Staphylococcus aureus 20534 clinical isolate after 20 to 24 hrs by two-fold microdilution method
Staphylococcus aureus [43] = test: Antibacterial activity against methicillin-resistant Staphylococcus aureus 221022 clinical isolate after 20 to 24 hrs by two-fold microdilution method
Staphylococcus aureus [44] = test: Antibacterial activity against methicillin-resistant Staphylococcus aureus 1012039 clinical isolate after 20 to 24 hrs by two-fold microdilution method
Staphylococcus aureus [45] = test: Antibacterial activity against methicillin-resistant Staphylococcus aureus 530231 clinical isolate after 20 to 24 hrs by two-fold microdilution method
Staphylococcus aureus [46] = test: Antibacterial activity against methicillin-resistant Staphylococcus aureus 10844 clinical isolate after 20 to 24 hrs by two-fold microdilution method
Staphylococcus aureus [47] = test: Antibacterial activity against methicillin-resistant Staphylococcus aureus 1019240 clinical isolate after 20 to 24 hrs by two-fold microdilution method

O=C1c2cccnc2C(=O)c2c1c(C(=O)OCCCCN1CCOCC1)c1ccc(Br)cn21
≤ 0.0078 µg/mL: MIC (Staphylococcus aureus [30])
0.5 µg/mL: MIC (Staphylococcus aureus [2]) | MIC (Staphylococcus aureus [5]) | MIC50 (Staphylococcus aureus [10]) | MIC (Staphylococcus aureus [11]) | MIC (Staphylococcus aureus [12]) | MIC (Staphylococcus aureus [13]) | MIC (Staphylococcus aureus [17]) | MIC (Staphylococcus aureus [20]) | MIC (Staphylococcus aureus [22]) | MIC (Staphylococcus aureus [23]) | MIC (Staphylococcus aureus [24]) | MIC (Staphylococcus aureus [31]) | MIC (Staphylococcus aureus [35]) | MIC (Staphylococcus aureus [36]) | MIC (Staphylococcus aureus [40]) | MIC (Staphylococcus aureus [41]) | MIC (Staphylococcus aureus [43]) | MIC (Staphylococcus aureus [44]) | MIC (Staphylococcus aureus [45]) | MIC (Staphylococcus aureus [46])
16 µg/mL: MIC (Staphylococcus aureus [8])
1 µg/mL: MIC (Staphylococcus aureus [6]) | MIC90 (Staphylococcus aureus [10]) | MIC (Staphylococcus aureus [16]) | MIC (Staphylococcus aureus [19]) | MIC (Staphylococcus aureus [21]) | MIC (Staphylococcus aureus [26]) | MIC (Staphylococcus aureus [38]) | MIC (Staphylococcus aureus [42]) | MIC (Staphylococcus aureus [47])
8 µg/mL: MIC (Staphylococcus aureus [37])
0.125 µg/mL: MIC (Staphylococcus aureus [9]) | MIC (Staphylococcus aureus [33]) | MIC (Staphylococcus aureus [34])
0.031 µg/mL: MIC (Staphylococcus aureus [39])
0.063 µg/mL: MIC (Staphylococcus aureus [3]) | MIC (Staphylococcus aureus [18]) | MIC (Staphylococcus aureus [32])
0.25 µg/mL: MIC (Staphylococcus aureus [1]) | MIC (Staphylococcus aureus [4]) | MIC (Staphylococcus aureus [7]) | MIC (Staphylococcus aureus [14]) | MIC (Staphylococcus aureus [15]) | MIC (Staphylococcus aureus [25]) | MIC (Staphylococcus aureus [27]) | MIC (Staphylococcus aureus [28]) | MIC (Staphylococcus aureus [29])

CN(C)CCCCCOC(=O)c1c2c(n3cc(Br)ccc13)C(=O)c1ncccc1C2=O
0.25 µg/mL: MIC (Staphylococcus aureus [1]) | MIC (Staphylococcus aureus [5]) | MIC50 (Staphylococcus aureus [10]) | MIC (Staphylococcus aureus [13]) | MIC (Staphylococcus aureus [14]) | MIC (Staphylococcus aureus [15]) | MIC (Staphylococcus aureus [18]) | MIC (Staphylococcus aureus [23]) | MIC (Staphylococcus aureus [25]) | MIC (Staphylococcus aureus [27]) | MIC (Staphylococcus aureus [33]) | MIC (Staphylococcus aureus [34]) | MIC (Staphylococcus aureus [35]) | MIC (Staphylococcus aureus [36]) | MIC (Staphylococcus aureus [38]) | MIC (Staphylococcus aureus [41]) | MIC (Staphylococcus aureus [45]) | MIC (Staphylococcus aureus [46])
0.5 µg/mL: MIC (Staphylococcus aureus [2]) | MIC (Staphylococcus aureus [3]) | MIC (Staphylococcus aureus [4]) | MIC (Staphylococcus aureus [6]) | MIC (Staphylococcus aureus [7]) | MIC90 (Staphylococcus aureus [10]) | MIC (Staphylococcus aureus [11]) | MIC (Staphylococcus aureus [12]) | MIC (Staphylococcus aureus [17]) | MIC (Staphylococcus aureus [19]) | MIC (Staphylococcus aureus [20]) | MIC (Staphylococcus aureus [21]) | MIC (Staphylococcus aureus [22]) | MIC (Staphylococcus aureus [26]) | MIC (Staphylococcus aureus [29]) | MIC (Staphylococcus aureus [40]) | MIC (Staphylococcus aureus [42]) | MIC (Staphylococcus aureus [43]) | MIC (Staphylococcus aureus [47])
16 µg/mL: MIC (Staphylococcus aureus [8])
0.125 µg/mL: MIC (Staphylococcus aureus [16]) | MIC (Staphylococcus aureus [24]) | MIC (Staphylococcus aureus [28]) | MIC (Staphylococcus aureus [31]) | MIC (Staphylococcus aureus [32]) | MIC (Staphylococcus aureus [44])
0.063 µg/mL: MIC (Staphylococcus aureus [9]) | MIC (Staphylococcus aureus [30])
≤ 0.0078 µg/mL: MIC (Staphylococcus aureus [39])
4 µg/mL: MIC (Staphylococcus aureus [37])
